Source: patent US8624027B2, “Combination therapy for treating cancer and diagnostic assays for use therein” (AbbVie Inc., priority 2005, dated 2014)
Read-outs that look alike come from different tables or passages of the source.

Tests used:
[1] = test system: NCI-H146 human small cell lung carcinoma cells; test: Cellular efficacy in human tumor cell line (MTS viability assay); format: cell-based; conditions: 10% human serum, 48 hours
Description: NCI-H146 (ATCC, Manassas, Va.) human small cell lung carcinoma cells were plated 50,000 cells per well in 96-well tissue culture plates in a total volume of 100 μL tissue culture medium supplemented with 10% human serum (Invitrogen, Carlsbad, Calif.) instead of fetal bovine serum and treated with a 2-fold serial dilution of the compounds of interest from 10 μM to 0.020 μM. Each concentration was tested in duplicate at least 3 separate times. The number of viable cells following 48 hours of compound treatment was determined using the CellTiter 96® AQueous non-radioactive cell proliferation MTS assay according to manufacturer's recommendations (Promega Corp., Madison, Wis.).

[2] = Pharmacokinetic evaluation in rat; format: in vivo; conditions: male, Sprague-Dawley, plasma; for AUC / Cmax: 5 mg/kg, oral; for AUC(0-inf): single 5 mg/kg oral dose, Table 1, read-out: Pharmacokinetic area under the plasma concentration Curve (rat) AUC0-∞
Description: The pharmacokinetic behavior of compounds of this disclosure was determined following a single 2 mg/kg intravenous or 5 mg/kg oral dose in male Sprague-Dawley derived rats (n=3 per group). The compounds were prepared as 2 mg/mL solution in a 10% DMSO in PEG-400 formulation for both oral and intravenous administration. The 1 mL/kg intravenous dose was administered as a slow bolus (about 1-2 minutes) in the jugular vein of a rat under light ether anesthetic. The oral dose was administered by gavage. Serial blood samples were obtained from a tail vein of each rat prior 0.1 (IV only), 0.25, 0.5, 1, 1.5, 2, 3, 4, 6, 8 and 24 hours after dosing. The heparinized samples were thoroughly mixed and placed in an ice bath. Plasma was separated by centrifugation and stored frozen prior to analysis.
The compounds of interest were separated from the plasma using protein precipitation with acetonitrile. A plasma (100-200 μL, sample or spiked standard) aliquot was combined with 50 μL of internal standard (structurally related analog prepared in acetonitrile) and 1 ml acetonitrile in a 96-well polypropylene deep well plate. The plates were vortexed for 30 seconds followed by centrifugation (3500 rpm×15 minutes, 4° C.). In an automated manner, the supernatant was transferred to a clean 96-well plate. The samples were evaporated to near dryness on a Micro-Vap™ under a stream of dry nitrogen over low heat (˜37° C.). The samples were reconstituted vortexing with 0.2 mL 5% DMSO in acetonitrile. A 0.1-0.2 ml aliquot of acetonitrile: 0.1% trifluoroacetic acid (20:80, by volume) was added to each well, followed by an additional 30 second vortexing. The plates were centrifuged (3500 rpm×15 minutes, 4° C.) prior to HPLC-MS/MS analysis. Samples were analyzed simultaneously with spiked plasma standards. All samples from each study were analyzed as a single batch on the LC-MS/MS.
The compounds of interest and the internal standard were separated from each other and co-extracted contaminants on a 50×3 mm Keystone Betasil CN 5 μm column with an acetonitrile: 0.1% trifluoroacetic acid mobile phase (50:50, by volume) at a flow rate of 0.7 ml/min. Analysis was performed on a Sciex API 300™ Biomolecular Mass Analyzer using a heated nebulizer interface. Peak areas of the title compounds and internal standards were determined using the Sciex MacQuan™ software. Calibration curves were derived from peak area ratio (parent drug/internal standard) of the spiked rat plasma standards using least squares linear regression of the ratio versus the theoretical concentration. The methods were generally linear over the range of the standard curve (correlation coefficients >0.99) with an estimated quantitation limit of 0.01 μg/mL. The plasma concentration data for each animal were submitted to multi-exponential curve fitting using WinNonlin. The area under the plasma concentration-time curve from 0 to t hours (time of the last measurable plasma concentration) after dosing (AUC0-t) was calculated using the linear trapezoidal rule for the plasma concentration-time profiles. The residual area extrapolated to infinity, determined as the final measured plasma concentration (Ct) divided by the terminal elimination rate constant (β), was added to AUC0-t to produce the total area under the curve (AUC0-∞). Ki values shown in the tables below were determined using Wang's equation (Wang Z X., An Exact Mathematical Expression For Describing Competitive Binding Of Two Different Ligands To A Protein Molecule. FEBS Lett. 1995; 360:111-4)).

[3] = target: T1, Bcl-2 protein (Homo sapiens, UniProt P10415, DELINS35-91DVEENRTEAPEGTESE, form not given); test: Bcl-2 binding affinity, fluorescence polarization with fluorescein-labeled BAX peptide; conditions: Wang's equation, read-out: Target Binding Affinity Ki (Bcl-2)
T1 construct: fused on or other part: A short piece of the Bcl-xL (Q07817) loop replaces Bcl-2 loop residues 35-91; The C-terminal membrane anchor is absent
T1 sequence (P10415 with tags, fused parts or gaps with the stated changes): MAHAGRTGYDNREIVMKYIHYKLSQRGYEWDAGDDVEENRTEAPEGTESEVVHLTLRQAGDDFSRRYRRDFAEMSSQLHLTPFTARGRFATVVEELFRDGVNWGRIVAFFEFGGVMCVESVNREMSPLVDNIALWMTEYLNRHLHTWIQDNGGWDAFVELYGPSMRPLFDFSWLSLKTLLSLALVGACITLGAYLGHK

[4] = target: Bcl-XL protein (Homo sapiens, UniProt Q07817); test: Bcl-XL binding affinity, fluorescence polarization with fluorescein-labeled BAD peptide; conditions: Wang's equation, read-out: Target Binding Affinity Ki (Bcl-XL)
Bcl-XL protein, sequence (Q07817 with tags, fused parts or gaps DEL45-84): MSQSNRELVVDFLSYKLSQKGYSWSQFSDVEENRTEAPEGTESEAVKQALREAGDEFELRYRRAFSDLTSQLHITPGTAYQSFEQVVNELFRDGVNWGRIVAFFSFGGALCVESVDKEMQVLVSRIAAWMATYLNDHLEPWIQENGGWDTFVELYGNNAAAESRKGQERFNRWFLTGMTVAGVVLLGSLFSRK
Description: A mixture comprising 125 μL per well of assay buffer (20 mM phosphate buffer (pH 7.4), 1 mM EDTA, 50 mM NaCl, 0.05% PF-68), 6 nM of Bcl-XL protein (prepared as described in Science 1997, 275, 983-986), 1 nM fluorescein-labeled BAD peptide (prepared in-house) and the DMSO solution of the compound was shaken for 2 minutes and placed in a LJL Analyst (LJL Bio Systems, CA). A negative control (DMSO, 15 nM BAD peptide, assay buffer) and a positive control (DMSO, 1 nM BAD peptide, 6 nM Bcl-XL, assay buffer) were used to determine the range of the assay. Polarization was measured at room temperature using a continuous Fluorescein lamp (excitation 485 nm, emission 530 nm). Percentage of inhibition was determined by (1-((mP value of well-negative control)/range))×100%.

[5] = NCI-H146, Table 2, read-out: NCI-H146 Cellular Efficacy H146, EC50
[6] = Table 2, read-out: Pharmacokinetic area under the plasma concentration curve (rat) AUC
[7] = Table 2, read-out: Pharmacokinetic peak plasma concentration (rat) Cmax
[8] = NCI-H146, Table 1, read-out: NCI-H146 Cellular Efficacy EC50
[9] = NCI-H146, Table 3, read-out: NCI-H146 Cellular Efficacy H146 EC50
[10] = Table 3, read-out: Pharmacokinetic area under the plasma concentration Curve (rat) AUC
[11] = Table 3, read-out: Pharmacokinetic peak plasma concentration (rat) Cmax

EC50 [1, 5] | AUC [2, 6] | Cmax [2, 7] | Ki [3] | Ki [4] | EC50 [1, 8] | AUC(0-inf) [2] | EC50 [1, 9] | AUC [2, 10] | Cmax [2, 11] | Compound | EC50 ([1]; Table 1, read-out: NCI-H146 Cellular Efficacy EC50)
– | – | – | – | – | – | – | – | – | – | 3-((chloro(difluoro)methyl)sulfonyl)-N-(4-(4-((2-(4-chlorophenyl)-4,4-dimethylcyclohex-1-en-1-yl)methyl)piperazin-1-yl)benzoyl)-4-(((1R)-3-(dimethylamino)-1-((phenylsulfanyl)methyl)propyl)amino)benzenesulfonamide [Example 28] | 24.2 nM
1600 nM | 4.41 µM·h | 371 nM | – | – | – | – | – | – | – | CN(C)CC[C@H](CSc1ccccc1)Nc1ccc(S(=O)(=O)NC(=O)c2ccc(N3CCN(Cc4ccccc4-c4ccc(Cl)cc4)CC3)cc2)cc1C(F)(F)F [A, reference compound] | –
63 nM | 0.283 µM·h | 39 nM | – | – | – | – | – | – | – | CN(C)CC[C@H](CSc1ccccc1)Nc1ccc(S(=O)(=O)NC(=O)c2ccc(N3CCN(Cc4ccccc4-c4ccc(Cl)cc4)CC3)cc2)cc1[N+](=O)[O-] [B, reference compound] | –
1810 nM | 1.92 µM·h | 315 nM | – | – | – | – | – | – | – | CN(C)CC[C@H](CSc1ccccc1)Nc1ccc(S(=O)(=O)NC(=O)c2ccc(N3CCN(Cc4ccccc4-c4ccc(Cl)cc4)CC3)cc2)cc1C#N [C, reference compound] | –
7330 nM | 3.83 µM·h | 386 nM | – | – | – | – | – | – | – | CN(C)CC[C@H](CSc1ccccc1)Nc1ccc(S(=O)(=O)NC(=O)c2ccc(N3CCN(Cc4ccccc4-c4ccc(Cl)cc4)CC3)cc2)c(F)c1C(F)(F)F [D, reference compound] | –
– | – | – | ≤ 1 nM | ≤ 1 nM | 29.1 nM | 7.01 µM·h | – | – | – | CC1(C)CCC(CN2CCN(c3ccc(C(=O)NS(=O)(=O)c4ccc(N[C@H](CCN5CCOCC5)CSc5ccccc5)c(S(=O)(=O)C(F)(F)Cl)c4)cc3)CC2)=C(c2ccc(Cl)cc2)C1 [Example 2, 3-((chloro(difluoro)methyl)sulfonyl)-N-(4-(4-((2-(4-chlorophenyl)-4,4-dimethylcyclohex-1-en-1-yl)methyl)piperazin-1-yl)benzoyl)-4-(((1R)-3-(morpholin-4-yl)-1-((phenylsulfanyl)methyl)propyl)amino)benzenesulfonamide] | –
– | – | – | ≤ 1 nM | ≤ 1 nM | 28.8 nM | 4.13 µM·h | 29 nM | 4.13 µM·h | 385 nM | O=C(NS(=O)(=O)c1ccc(N[C@H](CCN2CCOCC2)CSc2ccccc2)c(S(=O)(=O)C(F)(F)Cl)c1)c1ccc(N2CCN(CC3=C(c4ccc(Cl)cc4)CCCC3)CC2)cc1 [Example 3, 3-((chloro(difluoro)methyl)sulfonyl)-N-(4-(4-((2-(4-chlorophenyl)-1-cyclohex-1-en-1-yl)methyl)piperazin-1-yl)benzoyl)-4-(((1R)-3-(morpholin-4-yl)-1-((phenylsulfanyl)methyl)propyl)amino)benzenesulfonamide] | –
– | – | – | ≤ 1 nM | ≤ 1 nM | 58.7 nM | 6.34 µM·h | – | – | – | CC(C)N(C)CC[C@H](CSc1ccccc1)Nc1ccc(S(=O)(=O)NC(=O)c2ccc(N3CCN(CC4=C(c5ccc(Cl)cc5)CCC(C)(C)C4)CC3)cc2)cc1S(=O)(=O)C(F)(F)F [Example 4, N-(4-(4-((2-(4-chlorophenyl)-5,5-dimethylcyclohex-1-en-1-yl)methyl)piperazin-1-yl)benzoyl)-4-(((1R)-3-(isopropyl(methyl)amino)-1-((phenylsulfanyl)methyl)propyl)amino)-3-((trifluoromethyl)sulfonyl)benzenesulfonamide] | –
– | – | – | ≤ 1 nM | ≤ 1 nM | 38.8 nM | 2.22 µM·h | – | – | – | CC(C)N(C)CC[C@H](CSc1ccccc1)Nc1ccc(S(=O)(=O)NC(=O)c2ccc(N3CCN(CC4=C(c5ccc(Cl)cc5)CCCCC4)CC3)cc2)cc1S(=O)(=O)C(F)(F)F [Example 5, N-(4-(4-((2-(4-chlorophenyl)-1-cyclohepten-1-yl)methyl)piperazin-1-yl)benzoyl)-4-(((1R)-3-(isopropyl(methyl)amino)-1-((phenylsulfanyl)methyl)propyl)amino)-3-((trifluoromethyl)sulfonyl)benzenesulfonamide] | –
– | – | – | ≤ 1 nM | ≤ 1 nM | 1 nM | 0.91 µM·h | 10 nM | 0.913 µM·h | 113 nM | O=C(NS(=O)(=O)c1ccc(N[C@H](CCN2C[C@@H]3C[C@H]2CO3)CSc2ccccc2)c(S(=O)(=O)C(F)(F)Cl)c1)c1ccc(N2CCN(CC3=C(c4ccc(Cl)cc4)CCCC3)CC2)cc1 [Example 6, 3-((chloro(difluoro)methyl)sulfonyl)-N-(4-(4-((2-(4-chlorophenyl)cyclohex-1-en-1-yl)methyl)piperazin-1-yl)benzoyl)-4-(((1R)-3-((1S,4S)-2-oxa-5-azabicyclo[2.2.1]hept-5-yl)-1-((phenylsulfanyl)methyl)propyl)amino)benzenesulfonamide] | –
– | – | – | ≤ 1 nM | ≤ 1 nM | 58.9 nM | 3.87 µM·h | 59 nM | 3.87 µM·h | 518 nM | O=C(NS(=O)(=O)c1ccc(N[C@H](CCN2CCOCC2)CSc2ccccc2)c(S(=O)(=O)C(F)(F)F)c1)c1ccc(N2CCN(CC3=C(c4ccc(Cl)cc4)CCCC3)CC2)cc1 [Example 7, N-(4-(4-((2-(4-chlorophenyl)cyclohex-1-en-1-yl)methyl)piperazin-1-yl)benzoyl)-4-(((1R)-3-(morpholin-4-yl)-1-((phenylsulfanyl)methyl)propyl)amino)-3-((trifluoromethyl)sulfonyl)benzenesulfonamide] | –
– | – | – | ≤ 1 nM | ≤ 1 nM | – | – | – | – | – | CN(C)CC[C@H](CSc1ccccc1)Nc1ccc(S(=O)(=O)NC(=O)c2ccc(N3CCN(CC4=C(c5ccc(Cl)cc5)CC(C)(C)CC4)CC3)cc2)cc1S(=O)(=O)C(F)(F)Cl [Example 28, 3-((chloro(difluoro)methyl)sulfonyl)-N-(4-(4-((2-(4-chlorophenyl)-4,4-dimethylcyclohex-1-en-1-yl)methyl)piperazin-1-yl)benzoyl)-4-(((1R)-3-(dimethylamino)-1-((phenylsulfanyl)methyl)propyl)amino)benzenesulfonamide] | –
– | – | – | – | – | – | – | 26 nM | 0.507 µM·h | 57 nM | CN(C)CC[C@H](CSc1ccccc1)Nc1ccc(S(=O)(=O)NC(=O)c2ccc(N3CCN(CC4=C(c5ccc(Cl)cc5)CCCC4)CC3)cc2)cc1[N+](=O)[O-] [G, reference compound] | –
– | – | – | – | – | – | – | 410 nM | 1.97 µM·h | 215 nM | CN(C)CC[C@H](CSc1ccccc1)Nc1ccc(S(=O)(=O)NC(=O)c2ccc(N3CCN(CC4=C(c5ccc(Cl)cc5)CCCC4)CC3)cc2)cc1C(F)(F)F [H, reference compound] | –
